In this experiment the test system is Mycobacterium tuberculosis. In words: Antitubercular activity against Multidrug-resistant Mycobacterium tuberculosis H37Rv assessed as reduction in microbial growth by broth dilution method. It counts as functional. A general note: In broth dilution the organism is exposed to a series of concentrations in liquid medium.

As usually defined, the MIC is the least concentration at which growth counts as inhibited. With `CO[C@H]1/C=C/O[C@@]2(C)Oc3c(C)c(O)c4c(O)c(c(/C=N/N5CCN(C)CC5)c(O)c4c3C2=O)NC(=O)/C(C)=C\C=C\[C@H](C)[C@H](O)[C@@H](C)[C@@H](O)[C@@H](C)[C@H](OC(C)=O)[C@@H]1C` [RIFAMPIN], the minimum inhibitory concentration (MIC) worked out at 25 µg/mL.

For `Cc1ccc(C)n1-c1ccc(C(=O)n2[nH]c(=O)c3ccccc3c2=O)cc1`, the MIC came out at 0.4 µg/mL. As to `CCOc1cc(C2OC(c3ccc(-n4cccc4)cc3)=NN2C(C)=O)ccc1O` (stereo not given), the minimum inhibitory concentration (MIC) amounted to 0.2 µg/mL.

Consider `CC[C@@H](CO)NCCN[C@@H](CC)CO` [ETHAMBUTOL], for which the MIC was determined as 12.5 µg/mL. For the compound `NNC(=O)c1ccncc1` [ISONIAZID], the MIC was found to be 12.5 µg/mL.
